Assay results as given in US7250399B2, “Compounds having growth hormone releasing activity” (The Administrators of the Tulane Educational Fund, priority 1998, dated 2007).
Values joined by “and” are separate entries in the source; they are usually repeats but may differ in a detail not shown here. Equal entries are not always repeated.

Assays:
[1] = tested on: Growth Hormone release; assay: In Vitro Release of Growth Hormone in Rat; assay type: cell-based
Method: (§1) In vitro and in vivo activity of certain compounds were determined in rats and adult beagle dogs (in vivo activity only).

[2] = tested on: Growth Hormone release; assay: In Vivo GH Release in Rats (i.v., serum GH by RIA); set-up: species or system Sprague-Dawley rats; conditions: i.v., serum 10 min after injection
Method: Immature female Sprague-Dawley rats were obtained from the Charles River Laboratories (Wilmington, Mass.). After arrival they were housed at 25° C. with a 14:10 hour light:dark cycle. Water and Purina rat chow were available ad libitum. Pups were kept with their mothers until 21 days of age.
Twenty-six day old rats, six rats per treatment group, were anesthetized interperitoneally with 50 mg/kg of pentobarbital 20 minutes prior to i.v. treatment with peptide. Normal saline with 0.1% gelatin was the vehicle for intravenous (i.v.) injections of the peptides. The anesthetized rats, weighing 55-65 grams, were injected i.v. with the quantity of grown hormone releasing compounds indicated in Table 3. Injection was made as a 0.1 mL solution into the jugular vein.
All animals were sacrificed by guillotine 10 minutes after final test injection (see Table 3). Trunk blood for the determination of blood GH levels was collected following decapitation. After allowing the blood to clot, it was centrifuged and the serum was separated from the clot. Serum was kept frozen until the day of sampling for radioimmunoassay (RIA) determination of growth hormone levels according to the following procedure, as developed by the National Institute of Arthritis, Diabetes and Digestive and Kidney Diseases (NIADDK).
Reagents are generally added to the RIA analysis tubes at a single sitting, at refrigerator temperature (about 4° C.) in the following sequence: • (a) buffer, • (b) “cold” (i.e., non-radioactive) standard or unknown serum sample to be analyzed, • (c) radio-iodinated growth hormone antigen, and • (d) growth hormone antiserum.
Reagent addition is generally carried out so that there is achieved a final RIA tube dilution of about 1:30,000 (antiserum to total liquid volume; vol:vol).
The mixed reagents are then typically incubated at room temperature (about 25° C.) for about 24 hours prior to addition of a second antibody (e.g., goat or rabbit anti-monkey gamma globulin serum) which binds to and causes precipitation of the complexed growth hormone antiserum. Precipitated contents of the RIA tubes are then analyzed for the number of counts in a specified period of time in a gamma scintillation counter. A standard curve is prepared by plotting number of radioactive counts versus growth hormone (GH) level. GH levels of unknown are then determined by reference to the standard curve.
Serum GH was measured by RIA with reagents provided by the National Hormone and Pituitary Program.
Serum levels in Tables 3 and 4 are recorded in ng/mL in terms of the rat GH standard of 0.61 International Units/mg (IU/mg). Data is recorded as the mean ±standard error of the mean (SEM). Statistical analysis was performed with Student's t-test. In Table 3, the results shown are the average of studies with six rats.

[3] = tested on: Growth Hormone release; assay: In Vivo Release of Growth Hormone in Adult Beagle Dogs; set-up: unit not given here
Method: as §1

[4] = compound at .0001 (dose unit not given)
[5] = compound at .0003 (dose unit not given)
[6] = compound at .001 (dose unit not given)
[7] = compound at .003 (dose unit not given)
[8] = compound at .01 (dose unit not given)
[9] = compound at 3 (dose unit not given)
[10] = compound at 10 (dose unit not given)
[11] = compound at 30 (dose unit not given)
[12] = oral dose 4 mg/kg, time 6 hr, 4 mg/kg
[13] = oral dose 4F [sic] (mg/kg; F not explained), time 0 hr
[14] = oral dose 4F [sic] (mg/kg; F not explained), time 2 hr
[15] = oral dose 4F [sic] (mg/kg; F not explained), time 4 hr
[16] = oral dose 4F [sic] (mg/kg; F not explained), time 5 hr

CCN(CC)C(=O)C1CCCNC1 (stereo not drawn) [N,N-diethylnipecotamide]
In Vitro Release of Growth Hormone in Rat, GH [1, 4]: 418 ng/mL | In Vitro Release of Growth Hormone in Rat, GH [1, 5]: 395 ng/mL | In Vitro Release of Growth Hormone in Rat, GH [1, 6]: 489 ng/mL | In Vitro Release of Growth Hormone in Rat, GH [1, 7]: 536 ng/mL | In Vitro Release of Growth Hormone in Rat, GH [1, 8]: 642 ng/mL | In Vivo Release of Growth Hormone in Rat, GH ([2]; compound at 1 (dose unit not given)): 928 ng/mL | In Vivo Release of Growth Hormone in Rat, GH [2, 9]: 2070 ng/mL | In Vivo Release of Growth Hormone in Rat, GH [2, 10]: 2896 ng/mL | In Vivo Release of Growth Hormone in Rat, GH [2, 11]: 2186 ng/mL | In Vivo Release of Growth Hormone in Rat, GH ([2]; compound at .3 (dose unit not given)): 221 ng/mL | In Vivo Release of Growth Hormone in Adult Beagle Dogs ([3]; oral dose 4 mg/kg, time 0 hr, 4 mg/kg): 1.7 and 0.9 | In Vivo Release of Growth Hormone in Adult Beagle Dogs ([3]; oral dose 4 mg/kg, time 0.5 hr, 4 mg/kg): 57 and 43 | In Vivo Release of Growth Hormone in Adult Beagle Dogs ([3]; oral dose 4 mg/kg, time 1 hr, 4 mg/kg): 13 and 8 | In Vivo Release of Growth Hormone in Adult Beagle Dogs [3, 12]: 1.9 and 2.1 | In Vivo Release of Growth Hormone in Adult Beagle Dogs ([3]; oral dose 4 mg/kg, time 8 hr, 4 mg/kg): 1.7 and 0.9 | In Vivo Release of Growth Hormone in Adult Beagle Dogs [3, 13]: 2.7 | In Vivo Release of Growth Hormone in Adult Beagle Dogs [3, 14]: 3.7 | In Vivo Release of Growth Hormone in Adult Beagle Dogs [3, 15]: 0.9 | In Vivo Release of Growth Hormone in Adult Beagle Dogs [3, 16]: 10 | In Vivo Release of Growth Hormone in Adult Beagle Dogs ([3]; oral dose 4F [sic] (mg/kg; F not explained), time 8 hr): 3.5

Aib-DTrp-DPro-3-methylpiperidinamide [DPro-m-methylpiperidine]
In Vitro Release of Growth Hormone in Rat, GH [1, 4]: 434 ng/mL | In Vitro Release of Growth Hormone in Rat, GH [1, 5]: 458 ng/mL | In Vitro Release of Growth Hormone in Rat, GH [1, 6]: 633 ng/mL | In Vitro Release of Growth Hormone in Rat, GH [1, 7]: 837 ng/mL | In Vitro Release of Growth Hormone in Rat, GH [1, 8]: 968 ng/mL | In Vivo Release of Growth Hormone in Rat, GH [2, 9]: 832 ng/mL | In Vivo Release of Growth Hormone in Rat, GH [2, 10]: 1557 ng/mL | In Vivo Release of Growth Hormone in Rat, GH [2, 11]: 1570 ng/mL | In Vivo Release of Growth Hormone in Rat, GH ([2]; compound at 100 (dose unit not given)): 1762 ng/mL | In Vivo Release of Growth Hormone in Adult Beagle Dogs ([3]; oral dose 1 mg/kg, time 0 hr, 1 mg/kg): 2 | In Vivo Release of Growth Hormone in Adult Beagle Dogs ([3]; oral dose 1 mg/kg, time 0.5 hr, 1 mg/kg): 53 and 63 | In Vivo Release of Growth Hormone in Adult Beagle Dogs ([3]; oral dose 1 mg/kg, time 1 hr, 1 mg/kg): 19 and 32 | In Vivo Release of Growth Hormone in Adult Beagle Dogs ([3]; oral dose 1 mg/kg, time 2 hr, 1 mg/kg): 15 and 17 | In Vivo Release of Growth Hormone in Adult Beagle Dogs ([3]; oral dose 1 mg/kg, time 3 hr, 1 mg/kg): 9.6 and 13 | In Vivo Release of Growth Hormone in Adult Beagle Dogs ([3]; oral dose 1 mg/kg, time 5 hr, 1 mg/kg): 2.2 and 1.5 | In Vivo Release of Growth Hormone in Adult Beagle Dogs ([3]; oral dose 1 mg/kg, time 7 hr, 1 mg/kg): 2.2 and 3 | In Vivo Release of Growth Hormone in Adult Beagle Dogs ([3]; oral dose 1 mg/kg, time 8 hr, 1 mg/kg): 1 | In Vivo Release of Growth Hormone in Adult Beagle Dogs ([3]; oral dose 2 mg/kg, time 0.5 hr): 128 | In Vivo Release of Growth Hormone in Adult Beagle Dogs ([3]; oral dose 2 mg/kg, time 1 hr): 59 | In Vivo Release of Growth Hormone in Adult Beagle Dogs ([3]; oral dose 2 mg/kg, time 2 hr): 29 | In Vivo Release of Growth Hormone in Adult Beagle Dogs ([3]; oral dose 2 mg/kg, time 3 hr): 12 | In Vivo Release of Growth Hormone in Adult Beagle Dogs ([3]; oral dose 2 mg/kg, time 4 hr): 8.9 | In Vivo Release of Growth Hormone in Adult Beagle Dogs ([3]; oral dose 2 mg/kg, time 6 hr): 3 | In Vivo Release of Growth Hormone in Adult Beagle Dogs ([3]; oral dose 2 mg/kg, time 7 hr): 3 | In Vivo Release of Growth Hormone in Adult Beagle Dogs ([3]; oral dose 4 mg/kg, time 1 hr): 55 | In Vivo Release of Growth Hormone in Adult Beagle Dogs ([3]; oral dose 4 mg/kg, time 2 hr, 4 mg/kg): 50 and 54 | In Vivo Release of Growth Hormone in Adult Beagle Dogs ([3]; oral dose 4 mg/kg, time 3 hr, 4 mg/kg): 52 and 53 | In Vivo Release of Growth Hormone in Adult Beagle Dogs ([3]; oral dose 4 mg/kg, time 4 hr, 4 mg/kg): 20 and 34 | In Vivo Release of Growth Hormone in Adult Beagle Dogs [3, 12]: 11 | In Vivo Release of Growth Hormone in Adult Beagle Dogs ([3]; oral dose 4 mg/kg, time 7 hr, 4 mg/kg): 11 | In Vivo Release of Growth Hormone in Adult Beagle Dogs [3, 13]: 1.4 | In Vivo Release of Growth Hormone in Adult Beagle Dogs ([3]; oral dose 4F [sic] (mg/kg; F not explained), time 0.5 hr): 72 | In Vivo Release of Growth Hormone in Adult Beagle Dogs ([3]; oral dose 4F [sic] (mg/kg; F not explained), time 1 hr): 84 | In Vivo Release of Growth Hormone in Adult Beagle Dogs [3, 14]: 18 | In Vivo Release of Growth Hormone in Adult Beagle Dogs ([3]; oral dose 4F [sic] (mg/kg; F not explained), time 3 hr): 4.7 | In Vivo Release of Growth Hormone in Adult Beagle Dogs [3, 15]: 3.5 | In Vivo Release of Growth Hormone in Adult Beagle Dogs [3, 16]: 1.4
